In patent publication US20250340563A1, “FUSED PYRIDAZINE DERIVATIVES AS NLRP3 INHIBITORS” (Takeda Pharmaceutical Company Limited, priority 2022, published 2025) one finds IC50 data, which are given here for 29 molecules.

Experiment [1] concerns NF-κB pathway. The experiment can be described thus: TNF-α assay in IFN-γ-differentiated, LPS-stimulated THP-1 cells (ELISA). Type of experiment: cell-based. The note with it: Homo sapiens, 50 ng/mL LPS, 3 hours. The protocol: Monocytic THP-1 cells (ATCC: TIB-202) are maintained in accordance with the provider's instructions in RPMI media (Life Technologies, Cat #A10491-01); RPMI is supplemented with 10% heat inactivated fetal bovine serum (Hyclone Cat #SH30396.03). The cells are differentiated into macrophages by the addition of 25 ng/mL IFN-γ for 24 hours at 37° C./5% CO2. Media is exchanged with fresh media with no FBS. The cells are plated at 40,000 cells per well in 384-well flat-bottom cell culture plates (Costar 3764) containing compounds (added in 1:1000) in a 1:3.16 serial dilution series in DMSO and are incubated for 30 minutes at 37° C./5% CO2. The NF-κB pathway is activated with the addition of 50 ng/mL LPS and the cells are incubated for 3 hours at 37° C./5% CO2. At the end of the incubation period, supernatant (40 μL) is removed, and […] are monitored using an ELISA (Human TNF-α ELISA, R&D systems, Cat #DY210) according to the manufacturer's instructions.
The IC50 values are calculated from a plot of percentage of inhibition versus the inhibitor concentration by a logistics curve fit according to: Y=[Bottom+(Top−Bottom)]/(1+10^[(Log IC50−X)·Hill Slope], where Y is the % inhibition at the inhibitor concentration, X, “Bottom” is the lowest inhibition value, i.e. 0%, “Top” is the maximum inhibition value, i.e. 100%, and the “Hill Slope” describes the slope of the sigmoidal curve between the “Bottom” and “Top” values. The curve fitting was conducted with internally developed software.
Background: An ELISA detects its analyte on a solid surface through an enzyme-linked reagent.

Experiment [2] concerns the target NLRP3 inflammasome (Homo sapiens, UniProt Q96P20). Kind of experiment: IL-1β assay in IFN-γ-differentiated, LPS-primed, ATP-activated THP-1 cells (ELISA). It counts as cell-based. The note with it: 50 ng/mL LPS priming, 2.5 mM ATP activation, 2 hours. In a few lines: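 THP-1 cells differentiated with 25 ng/mL IFN-γ for 24 h, then primed with 50 ng/mL LPS for 24 h in serum-free medium. After 30 min compound preincubation (1:3.16 dilution series), inflammasome activated with 2.5 mM ATP for 2 h at 37 °C. Supernatant IL-1β measured by ELISA; IC50 from logistic fit of % inhibition.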

NLRP3 inflammasome, sequence (Q96P20 whole entry): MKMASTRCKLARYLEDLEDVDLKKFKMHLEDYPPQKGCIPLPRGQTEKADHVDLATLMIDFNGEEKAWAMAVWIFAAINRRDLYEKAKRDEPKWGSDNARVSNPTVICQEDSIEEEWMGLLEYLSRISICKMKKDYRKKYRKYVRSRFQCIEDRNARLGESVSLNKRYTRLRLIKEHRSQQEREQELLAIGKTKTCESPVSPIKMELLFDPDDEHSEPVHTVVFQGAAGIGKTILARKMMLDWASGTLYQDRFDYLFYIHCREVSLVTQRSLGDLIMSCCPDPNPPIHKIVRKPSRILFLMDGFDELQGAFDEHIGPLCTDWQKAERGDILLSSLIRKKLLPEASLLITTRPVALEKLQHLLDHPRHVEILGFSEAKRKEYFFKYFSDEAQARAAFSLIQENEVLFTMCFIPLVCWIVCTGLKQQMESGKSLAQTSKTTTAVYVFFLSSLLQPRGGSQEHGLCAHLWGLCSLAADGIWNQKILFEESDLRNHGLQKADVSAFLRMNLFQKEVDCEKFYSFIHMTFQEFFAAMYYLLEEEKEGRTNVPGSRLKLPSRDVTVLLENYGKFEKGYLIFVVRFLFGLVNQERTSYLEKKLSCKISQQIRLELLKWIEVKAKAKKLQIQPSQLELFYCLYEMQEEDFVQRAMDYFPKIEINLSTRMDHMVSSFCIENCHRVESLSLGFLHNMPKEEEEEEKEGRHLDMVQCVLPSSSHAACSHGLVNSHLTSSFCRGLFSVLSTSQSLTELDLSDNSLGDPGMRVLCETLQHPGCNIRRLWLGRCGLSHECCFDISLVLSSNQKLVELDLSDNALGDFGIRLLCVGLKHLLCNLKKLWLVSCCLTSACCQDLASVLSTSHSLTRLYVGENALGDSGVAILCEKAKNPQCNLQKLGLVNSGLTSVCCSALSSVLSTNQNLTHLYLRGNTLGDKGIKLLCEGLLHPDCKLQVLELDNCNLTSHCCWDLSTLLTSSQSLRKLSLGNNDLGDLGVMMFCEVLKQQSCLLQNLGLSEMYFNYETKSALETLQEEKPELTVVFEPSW

With `Oc1cc(Cl)ccc1-c1nnc(NC23CCC(O)(CC2)C3)c2cnccc12` [Example 96, 4-((1-(4-chloro-2-hydroxyphenyl)pyrido[3,4-d]pyridazin-4-yl)amino)bicyclo[2.2.1]heptan-1-ol], the figures for the IC50 in experiment [1] and in experiment [2] were 26000 nM and 5 nM, respectively.
Taken in the same sequence, the figures for `Clc1ccc(-c2nnc(NC3CCCN(C4CC4)C3)c3ccncc23)cc1` (stereo not shown) [Example 89, 4-(4-chlorophenyl)-N-(1-cyclopropylpiperidin-3-yl)pyrido[3,4-d]pyridazin-1-amine] were above 30000 nM and 91 nM.
Taken in the same sequence, the figures for `Clc1ccc(-c2nnc(Nc3ccccc3)c3ccccc23)cc1` [Example 153, 4-(4-chlorophenyl)-N-phenylphthalazin-1-amine] were above 30000 nM and 2260 nM.
In the case of `C[C@]1(O)C[C@@H](Nc2nnc(-c3ccc(Cl)cc3)c3ccccc23)C1` [Example 118, cis-3-((4-(4-chlorophenyl)phthalazin-1-yl)amino)-1-methylcyclobutan-1-ol], the IC50 was above 30000 nM in experiment [1] and 334 nM in experiment [2].
Taken in the same sequence, the figures for `COc1ccc(-c2nnc(Nc3ccccc3O)c3ccccc23)cc1` [Example 39, 2-((4-(4-methoxyphenyl)phthalazin-1-yl)amino)phenol] were above 30000 nM and 1620 nM.
The matching figures for `COc1ccc(-c2nnc(N[C@@H]3C[C@@H](F)CN(C)C3)c3c2COCC3)c(F)c1` [Example 209, N-((3R,5R)-5-fluoro-1-methylpiperidin-3-yl)-4-(2-fluoro-4-methoxyphenyl)-7,8-dihydro-5H-pyrano[3,4-d]pyridazin-1-amine]: above 30000 nM and 1050 nM.
The matching figures for `CN1CCCC(Nc2nnc(-c3ccc(Cl)cc3F)c3ccncc23)C1` (stereo not shown) [Example 68, 1-(4-chloro-2-fluorophenyl)-N-(1-methylpiperidin-3-yl)pyrido[3,4-d]pyridazin-4-amine]: above 30000 nM and 46 nM.
`CN1CCC[C@@H](Nc2nnc(-c3ccc(Cl)cc3O)c3ccncc23)C1` [Example 74, (R)-5-chloro-2-(4-((1-methylpiperidin-3-yl)amino)pyrido[3,4-d]pyridazin-1-yl)phenol]: the IC50 in experiment [1] was above 30000 nM; in experiment [2], 4 nM.
On to `CN1CCC[C@@H](Nc2nnc(-c3ccc(Cl)cc3O)c3c2CCOC3)C1` [Example 224, (R)-5-chloro-2-(1-((1-methylpiperidin-3-yl)amino)-7,8-dihydro-5H-pyrano[3,4-d]pyridazin-4-yl)phenol], for which the IC50 in experiment [1] is above 30000 nM; in experiment [2], 2 nM.
The matching figures for `Cc1ccc(-c2nnc(N[C@@H]3C[C@@H](F)CN(C)C3)c3c(C)nccc23)c(O)c1` [Example 186, 2-(4-(((3R,5R)-5-fluoro-1-methylpiperidin-3-yl)amino)-5-methylpyrido[3,4-d]pyridazin-1-yl)-5-methylphenol]: above 30000 nM and 5 nM.
Consider `COc1ccc(-c2nnc(N[C@@H]3C[C@@H](F)CN(C)C3)c3cnccc23)cc1` [Example 174, N-((3R,5R)-5-fluoro-1-methylpiperidin-3-yl)-1-(4-methoxyphenyl)pyrido[3,4-d]pyridazin-4-amine], for which the IC50 is above 30000 nM in experiment [1] and 159 nM in experiment [2].
Taken in the same sequence, the figures for `CCN1CCCC(Nc2nnc(-c3ccc(Cl)cc3)c3ccccc23)C1` (stereo not shown) [Example 162, 4-(4-chlorophenyl)-N-(1-ethylpiperidin-3-yl)phthalazin-1-amine] were above 30000 nM and 18 nM.
The matching figures for `CN1C[C@H](F)C[C@@H](Nc2nnc(-c3ccc(Cl)cc3O)c3c2CCOC3)C1` [Example 200, 5-chloro-2-(1-(((3R,5R)-5-fluoro-1-methylpiperidin-3-yl)amino)-7,8-dihydro-5H-pyrano[3,4-d]pyridazin-4-yl)phenol]: above 30000 nM and 3 nM.
Taken in the same sequence, the figures for `Oc1cc(Cl)ccc1-c1nnc(N[C@@H]2CCCN(CCF)C2)c2cnccc12` [Example 85, (R)-5-chloro-2-(4-((1-(2-fluoroethyl)piperidin-3-yl)amino)pyrido[3,4-d]pyridazin-1-yl)phenol] were above 30000 nM and 2 nM.
Take `COc1ccc(-c2nnc(N[C@@H]3C[C@@H](F)CN(C)C3)c3c2CCOC3)c(C(F)(F)F)c1` [Example 216, N-((3R,5R)-5-fluoro-1-methylpiperidin-3-yl)-1-(4-methoxy-2-(trifluoromethyl)phenyl)-7,8-dihydro-5H-pyrano[3,4-d]pyridazin-4-amine]: the results for the IC50 in experiment [1] and in experiment [2] were above 30000 nM and 373 nM, respectively.
Taken in the same sequence, the figures for `CN1CCCC(Nc2nnc(-c3ccc(Cl)cc3F)c3ccccc23)C1` (stereo not shown) [Example 43, 4-(4-chloro-2-fluorophenyl)-N-(1-methylpiperidin-3-yl)phthalazin-1-amine] were above 30000 nM and 41 nM.
The matching figures for `Cc1ccc(-c2nnc(NC34CCC(O)(CC3)C4)c3c2COCC3)c(O)c1` [Example 232, 4-((4-(2-hydroxy-4-methylphenyl)-7,8-dihydro-5H-pyrano[3,4-d]pyridazin-1-yl)amino)bicyclo[2.2.1]heptan-1-ol]: above 30000 nM and 155 nM.
Taken in the same sequence, the figures for `CN1CCC[C@@H](Nc2nnc(-c3ccc(Cl)cc3F)c3ccncc23)C1` [Example 71, (R)-1-(4-chloro-2-fluorophenyl)-N-(1-methylpiperidin-3-yl)pyrido[3,4-d]pyridazin-4-amine] were 9550 nM and 46 nM.
Regarding `O[C@H]1C[C@@H](Nc2nnc(-c3ccc(Cl)cc3)c3ccccc23)C1` [Example 122, cis-3-((4-(4-chlorophenyl)phthalazin-1-yl)amino)cyclobutan-1-ol], the figures for the IC50 in experiment [1] and in experiment [2] were above 30000 nM and 2300 nM, respectively.
The matching figures for `COc1ccc(-c2nnc(N[C@@H]3C[C@@H](F)CN(C)C3)c3c2COCC3)c(C(F)F)c1` [Example 208, 4-(2-(difluoromethyl)-4-methoxyphenyl)-N-((3R,5R)-5-fluoro-1-methylpiperidin-3-yl)-7,8-dihydro-5H-pyrano[3,4-d]pyridazin-1-amine]: above 30000 nM and 853 nM.
With `CN1CCCC(Nc2nnc(-c3ccc(Cl)cc3)c3ccccc23)C1` (stereo not shown) [Example 113, 4-(4-chlorophenyl)-N-(1-methylpiperidin-3-yl)phthalazin-1-amine], the figures for the IC50 in experiment [1] and in experiment [2] were above 30000 nM and 47 nM, respectively.
As for `Cc1nccc2c(-c3ccc(Cl)cc3)nnc(NC3CCCN(C)C3)c12` (stereo not shown) [Example 76, 1-(4-chlorophenyl)-5-methyl-N-(1-methylpiperidin-3-yl)pyrido[3,4-d]pyridazin-4-amine], the IC50 in experiment [1] was above 30000 nM; in experiment [2] it was 178 nM.
On to `COc1ccc(-c2nnc(N[C@@H]3CCCN(CCF)C3)c3cnccc23)c(F)c1` [Example 87, (R)-1-(2-fluoro-4-methoxyphenyl)-N-(1-(2-fluoroethyl)piperidin-3-yl)pyrido[3,4-d]pyridazin-4-amine], for which the results for the IC50 in experiment [1] and in experiment [2] were above 30000 nM and 33 nM, respectively.
The matching figures for `Oc1ccccc1-c1nnc(N[C@@H]2CCCN(CCF)C2)c2cnccc12` [Example 86, (R)-2-(4-((1-(2-fluoroethyl)piperidin-3-yl)amino)pyrido[3,4-d]pyridazin-1-yl)phenol]: above 30000 nM and 21 nM.
The matching figures for `CCN1C[C@H](F)C[C@@H](Nc2nnc(-c3ccc(OC)cc3)c3ccncc23)C1` [Example 195, N-((3R,5R)-1-ethyl-5-fluoropiperidin-3-yl)-1-(4-methoxyphenyl)pyrido[3,4-d]pyridazin-4-amine]: above 30000 nM and 113 nM.
Taken in the same sequence, the figures for `FCCN1CCCC(Nc2nnc(-c3ccc(Cl)cc3)c3ccccc23)C1` (stereo not shown) [Example 140, 4-(4-chlorophenyl)-N-(1-(2-fluoroethyl)piperidin-3-yl)phthalazin-1-amine] were above 30000 nM and 75 nM.
Regarding `CN1C[C@H](F)C[C@@H](Nc2nnc(-c3ccc(Cl)cc3F)c3ccncc23)C1` [Example 184, 1-(4-chloro-2-fluorophenyl)-N-((3R,5R)-5-fluoro-1-methylpiperidin-3-yl)pyrido[3,4-d]pyridazin-4-amine], the IC50 in experiment [1] was above 30000 nM; in experiment [2], 152 nM.
Taken in the same sequence, the figures for `CN1CCC[C@@H](Nc2nnc(-c3ccc(Cl)cc3)c3ccccc23)C1` [Example 139, (R)-4-(4-chlorophenyl)-N-(1-methylpiperidin-3-yl)phthalazin-1-amine] were above 30000 nM and 31 nM.
The matching figures for `Cc1ccc(-c2nnc(N[C@@H]3CCCN(C)C3)c3cnccc23)cc1` [Example 30, (R)—N-(1-methylpiperidin-3-yl)-1-(p-tolyl)pyrido[3,4-d]pyridazin-4-amine]: above 30000 nM and 97 nM.

One may read the IC50 as the concentration that inhibits the measured activity by half. A lower IC50 goes with inhibition by little substance.
